{"source": "paper PMC12114947", "about": "“Evaluation of Violacein Metabolic Stability and Metabolite Identification in Human, Mouse, and Rat Liver Microsomes” (Pharmaceutics, 2025)", "key": {"[1]": {"test": "In vitro metabolic stability in rat liver microsomes", "assay_type": "in vitro ADME", "method": "After removal, a pool consisting of livers from five naïve male rats and five C57BL male mice was immediately placed in a 50 mM Tris-HCl buffer, pH 7.4, containing 150 mM KCl. The livers were diced with scissors and washed three times with buffer, followed by homogenization with 20 mL of buffer in a Potter-type homogenizer (three cycles, with each cycle comprising three grindings of 1 min each at 1000 rpm). The homogenate was centrifuged at 10,000× g for 15 min at 4 °C. The resulting supernatant was then ultracentrifuged at 100,000× g for 60 min at 4 °C to obtain the microsomal pellet, which was resuspended in 50 mM HEPES-HCl buffer, pH 7.4, containing 20% glycerol and 1 mM EDTA.\n(§1) The metabolic stability of volacein was assessed as described by Godoi et al. and Antunes et al.. Aliquots (4 µL) of 100 µM violacein working solution and 96 µL of the NADPH-regenerating system, containing 1.1 mM NADP^+, 10 mM glucose-6-phosphate, 1 U/mL glucose-6-phosphate dehydrogenase, 5 mM sodium citrate, and 66 mM magnesium chloride in 100 mM phosphate buffer, pH 7.4, were transferred to propylene tubes and pre-incubated for 5 min in an MTC 100 thermo shaker incubator (Miulab, Zhejiang, China) at 300 rpm and 37 °C. Subsequently, the metabolic reactions were initiated by adding 100 μL of microsomal proteins from HLMs, RLMs, and MLMs at a concentration of 2 mg/mL to the pre-incubated shaking tubes, resulting in final concentrations of 2 μM for violacein and 1 mg/mL for microsomal proteins. In this experiment, seven incubation times were planned for each species (0, 3, 5, 15, 30, 60, and 120 min), in triplicate. At each time interval, the reactions were stopped by adding 400 μL of ice-cold acetonitrile spiked with 10 µM omeprazole (IS) to each tube. Finally, the samples were vortexed for 5 min in a BenchMixer^TM XL (Benchmark, NJ, USA) and centrifuged at 12,000× g for 15 min at 4 °C (Hettich® Universal 320 R, Tuttlingen, Germany). The supernatants were transferred to a 96-well plate and 8 μL was injected into the LC-MS/MS system (see Section 2.3).\n(§2) All incubations were performed simultaneously with positive and negative controls. The positive controls were prepared by incubating dapaconazole at the same conditions as violacein (final concentrations: 2 μM) and its metabolic stability was compared with previous studies. Similarly, the negative controls were prepared by incubating violacein in buffer solution, in the absence of microsome and cofactor solutions.\n(§3) Violacein was analyzed using LC-MS/MS (LC-QQQ MS, LCMS8045, Shimadzu, Kyoto, Japan). Chromatographic separation was achieved on a Raptor^TM Biphenyl column (2.1 × 100 mm, 2.7 μm) at 40 °C. The mobile phases consisted of water (mobile phase A) and methanol (mobile phase B), both containing 2 mM ammonium formate and 0.1% (v/v) formic acid. A flow rate of 0.3 mL/min was used with an elution gradient starting at 20% mobile phase B and holding for 0.2 min, followed by a linear increase to 95% mobile phase B over 2 min that was then maintained for 1 min, with a return to the initial condition in 0.2 min. The total chromatographic run time was 5 min.\n(§4) In vitro t1/2 was calculated using to the following equation [60, 61]:(1) t1/2=ln(2)/k where k is the slope of the log-linear regression graph of the percentage of drug remaining as a function of time.\nCLint, in vitro was calculated using to the following equation [60, 61]:(2) CLint, in vitro=0.693/t1/2×Vincubation/mmicrosomes where Vincubation indicates the volume of the incubation in μL and mmicrosomes indicates the mass of microsomal proteins added to the incubation solution in mg. […]"}, "in vitro": {"test": "in vitro", "assay_type": "in vitro ADME", "conditions": "human", "method": "as §1, §2, §3, §4\nCLint, in vitro was calculated using to the following equation [60, 61]:(2) CLint, in vitro=0.693/t1/2×Vincubation/mmicrosomes where Vincubation indicates the volume of the incubation in μL and mmicrosomes indicates the mass of microsomal proteins added to the incubation solution in mg.\nAfter determining CLint, in vitro, it was possible to calculate CLint, in vivo using allometric scaling, as follows:(3) CLint, in vivo=CLint, in vitro×mmicrosomes/gliver×mliver/kgper body weight where mmicrosomes is 61, 45, and 40 mg and represents the mass of microsomal protein per gram of liver (gliver) for rats, mice, and humans, respectively. The mliver is 40, 87.5, and 25.7 g/kg and represents the mass of liver per kilogram of body weight (kgper body weight) for rats, mice, and humans, respectively.\nMetabolic stability was evaluated by linear regression analysis of the residual violacein after incubating 4 µM violacein with 2 mg/mL of HLMs, MLMs, and RLMs in the presence of the enzymatic cofactors required for CYP function in microsomes. Calculation of the in vitro violacein metabolic stability was achieved by plotting the remaining percentage of violacein on the y-axis and the incubation time on the x-axis (Figure 1a). […]"}, "Candida tropicalis": {"tested_on": "Candida tropicalis", "parameters": "method as in PMID 26428920", "conditions": "cited from earlier work"}}, "data": [{"compound": "O=C1NC(c2c[nH]c3ccc(O)cc23)=C/C1=C1\\C(=O)Nc2ccccc21", "note": "[violacein]", "values": [{"measurement": "CLint, in vitro", "setting": "[1]; RLMs", "value": 38.41, "unit": "µL/min/mg"}, {"measurement": "Ln Z", "setting": "[1]; RLMs, time 0 min", "value": 4.605}, {"measurement": "Z (%), remaining percentage of violacein", "setting": "[1]; RLMs, time 0 min", "value": 100, "unit": "%"}, {"measurement": "Ln Z", "setting": "[1]; RLMs, time 3 min", "value": 4.495}, {"measurement": "Z (%), remaining percentage of violacein", "setting": "[1]; RLMs, time 3 min", "value": 90, "unit": "%"}, {"measurement": "Ln Z", "setting": "[1]; RLMs, time 5 min", "value": 4.101}, {"measurement": "Z (%), remaining percentage of violacein", "setting": "[1]; RLMs, time 5 min", "value": 60, "unit": "%"}, {"measurement": "Ln Z", "setting": "[1]; RLMs, time 15 min", "value": 3.832}, {"measurement": "Z (%), remaining percentage of violacein", "setting": "[1]; RLMs, time 15 min", "value": 46, "unit": "%"}, {"measurement": "Ln Z", "setting": "[1]; RLMs, time 30 min", "value": 3.371}, {"measurement": "Z (%), remaining percentage of violacein", "setting": "[1]; RLMs, time 30 min", "value": 29, "unit": "%"}, {"measurement": "Ln Z", "setting": "[1]; RLMs, time 60 min", "value": 2.549}, {"measurement": "Z (%), remaining percentage of violacein", "setting": "[1]; RLMs, time 60 min", "value": 13, "unit": "%"}, {"measurement": "Ln Z", "setting": "[1]; RLMs, time 120 min", "value": 1.899}, {"measurement": "Z (%), remaining percentage of violacein", "setting": "[1]; RLMs, time 120 min", "value": 7, "unit": "%"}, {"measurement": "Slope (k), metabolism rate constant", "setting": "[1]; RLMs, ln remaining % vs incubation time", "value": "y = −0.0192x + 4.0344 r^2 = 0.9459 Slope (k) = 0.0192"}, {"measurement": "microsomal CLint at 2 µM", "setting": "[1]; male, rat, rat liver microsomes, pH 7.4, RLMs", "value": 38.4, "unit": "µL/min/mg"}, {"measurement": "CLint scaled at 2 µM", "setting": "[1]; male, rat, rat liver microsomes, pH 7.4, rat, extrapolated from CLint, in vitro by allometric scaling, read-out: CLint, in vivo", "value": 93.7, "unit": "mL/min/kg"}, {"measurement": "half-life at 2 µM", "setting": "[1]; male, rat, rat liver microsomes, pH 7.4, RLMs, 2 μM violacein, 1 mg/mL microsomal protein, NADPH-regenerating system, 37 °C, n = 3, read-out: In vitro elimination half-life (t1/2)", "value": 36, "unit": "min"}, {"measurement": "CLint, in vivo", "setting": "[1]; rat, extrapolated from CLint, in vitro by allometric scaling", "value": 93.72, "unit": "mL/min/kg"}, {"measurement": "Ln Z", "setting": "in vitro; 0 min, 2 µM, pH 7.4", "value": 4.605}, {"measurement": "Slope (k), metabolism rate constant", "setting": "in vitro; 2 µM, pH 7.4", "value": "y = −0.0032x + 4.3894 r^2 = 0.9651 Slope (k) = 0.0032"}, {"measurement": "Ln Z", "setting": "in vitro; 3 min, 2 µM, pH 7.4", "value": 4.462}, {"measurement": "Ln Z", "setting": "in vitro; 5 min, 2 µM, pH 7.4", "value": 4.417}, {"measurement": "Ln Z", "setting": "in vitro; 15 min, 2 µM, pH 7.4", "value": 4.316}, {"measurement": "Ln Z", "setting": "in vitro; 30 min, 2 µM, pH 7.4", "value": 4.277}, {"measurement": "Ln Z", "setting": "in vitro; 60 min, 2 µM, pH 7.4", "value": 4.183}, {"measurement": "Ln Z", "setting": "in vitro; 120 min, 2 µM, pH 7.4", "value": 4.017}, {"measurement": "Z (%), remaining percentage of violacein", "setting": "in vitro; microsomes, 0 h, 2 µM, pH 7.4", "value": 100, "unit": "%"}, {"measurement": "CLint, in vivo", "setting": "in vitro; microsomes, 2 µM, pH 7.4", "value": 6.58, "unit": "mL/min/kg"}, {"measurement": "Z (%), remaining percentage of violacein", "setting": "in vitro; microsomes, 0.05 h, 2 µM, pH 7.4", "value": 87, "unit": "%"}, {"measurement": "Z (%), remaining percentage of violacein", "setting": "in vitro; microsomes, 5 min, 2 µM, pH 7.4", "value": 83, "unit": "%"}, {"measurement": "Z (%), remaining percentage of violacein", "setting": "in vitro; microsomes, 0.25 h, 2 µM, pH 7.4", "value": 75, "unit": "%"}, {"measurement": "Z (%), remaining percentage of violacein", "setting": "in vitro; microsomes, 0.5 h, 2 µM, pH 7.4", "value": 72, "unit": "%"}, {"measurement": "Z (%), remaining percentage of violacein", "setting": "in vitro; microsomes, 1 h, 2 µM, pH 7.4", "value": 66, "unit": "%"}, {"measurement": "half-life at 2 µM", "setting": "in vitro; microsomes, pH 7.4", "value": 216, "unit": "min"}, {"measurement": "microsomal CLint at 2 µM", "setting": "in vitro; microsomes, pH 7.4", "value": 6.4, "unit": "µL/min/mg"}, {"measurement": "CLint scaled at 2 µM", "setting": "in vitro; microsomes, pH 7.4, CLint, in vivo", "value": 6.6, "unit": "mL/min/kg"}, {"measurement": "MIC", "setting": "Candida tropicalis", "value": 16, "unit": "µg/mL"}]}]}
